Data from US11274118B2 (priority 2012, dated 2022).
Converted amounts (≈) assume the structure as drawn. Like-named read-outs stand apart in the source and are kept apart here.

Columns and labels:
[1] = In vitro metabolism in human liver microsomes; conditions: human liver microsomes at 37° C., 0-60 min
[2] = system: cerebral edema in rats following bilateral cortical contusion; conditions: rat; for reduction of brain edema after 24 hours compared to untreated rats: in vivo
[3] = rat plasma
[4] = human plasma
[5] = physchem; conditions: kinetic from dmso stock
[6] = Rat pharmacokinetic profile, i.m. injection; assay type: in vivo; conditions: rats
Procedure: PK Animal Methods. Rat PK studies were done in jugular cannulated male SD rats, weighing 250-300 grams. 7 was dosed i.v. and i.m.; 13 was dosed i.m. only. For i.v. dosing 7 was formulated in PEG 300/glycofurol/Tween 80/water (26/5/2/67) and dosed @ 10 mg/kg and 3.3 ml/kg. For i.m. dosing, both compounds were formulated in propylene glycol/Tween 80/50 mM Citrate, pH 5.0 (40/4/56) and dosed @10 mg/kg and 1 ml/kg into the upper leg. Blood samples (0.3 ml) were taken at 0.25, 0.50, 1, 2, 4, 6 & 8 hours in the i.m. experiments; the same time points were used for the i.v. experiment, with the addition of an early 0.08 hr (5 min) time point. Samples were collected in either Li heparin or K EDTA microtainers, centrifuged at 2000×g for 10 minutes. Plasma was then transferred to 2 ml Eppendorf tubes, frozen on dry ice and transferred to a −80° C. freezer for storage until analysis for prodrug, oxime and progesterone by LC/MS/MS, followed by pharmacokinetic analysis by WinNonlin.

[7] = system: Primary cortical cells; test: Reduction of neuronal cell death after a glutamate challenge (MTT / LDH release); assay type: cell-based; conditions: for inhibition at 5 µM: 24 h, read-out: reduction in cell death at a 5 μM dose; for dose at maximum efficacy: primary cortical cells; for Emax: read-out: maximum efficacy, reduction in cell death
[8] = male, Sprague-Dawley (SD), rat, in vivo, iv, 10 mg/kg
[9] = physchem; conditions: aqueous with cosolvent or surfactant or cyclodextrin
[10] = physchem; conditions: pH 7
[11] = Exposure to rat S9 liver fractions; assay type: in vitro ADME; conditions: hydrochloride
[12] = buffer
[13] = system: moderate to severe TBI patients; conditions: 3 days of intravenous treatment, 100 moderate to severe TBI patients; cited from earlier work

SMILES	reduction of brain edema after 24 hours compared to untreated rats [2]	conversion to progesterone [3]	conversion to progesterone [4]	solubility at 90 min ([5]; pH 4, aqueous buffer)	solubility at 90 min ([5]; pH 7, aqueous buffer)	plasma levels of free oxime, parent prodrug and progesterone [6]	inhibition at 5 µM [7]	dose at maximum efficacy ([7]; glutamate challenge)	Emax [7]	plasma levels of parent, free oxime and progesterone [8]	further results
CC(=O)[C@H]1CC[C@H]2[C@@H]3CCC4=C/C(=N/OC(=O)[C@@H](N)C(C)C)CC[C@]4(C)[C@H]3CC[C@]12C.Cl [Compound 1, (S)-1-((E)-((8S,9S,10R,13S,14S,17S)-17-Acetyl-10,13-dimethyl-7,8,9,11-tetrahydro-1H-cyclopenta[a]phenanthren-3 (2H,6H, 1 OH, 12H, 13H, 14H, 15H, 16H, 17H)-ylidene)aminooxy)-2-amino-3-methylbutan-1-one Hydrochloride]	59%	neither of the test compounds were converted to progesterone	neither of the test compounds were converted to progesterone	322 µM	172 µM	generated measurable concentrations of the corresponding oximes without evidence of either the parent prodrug or progesterone	27%	5 µM	27%	hydrolyzed rapidly to provide large concentrations of the free oxime 2 and smaller concentrations of progesterone	metabolism in human liver microsomes [1]: hydrolyzed rapidly to the free oxime 2 as well as lesser quantities of progesterone; activity in in vitro and in vivo models of brain injury TBI [2]: activity similar to that of progesterone
C/C(=N\O)[C@H]1CC[C@H]2[C@@H]3CCC4=CC(=O)CC[C@]4(C)[C@H]3CC[C@]12C [Compound 3, (8S,9S,10R,13S,14S,17S)-17-((E)-1-(Hydroxyimino)ethyl)-10,13-dimethyl-6,7,8,9,10,11,12,13,14,15,16,17-dodecahydro-1H-cyclopenta[a]phenanthren-3(2H)-one]											aqueous solubility (neutral pH): highly insoluble
C/C(=N\OC(=O)[C@@H](N)C(C)C)[C@H]1CC[C@H]2[C@@H]3CCC4=CC(=O)CC[C@]4(C)[C@H]3CC[C@]12C.Cl [Compound 7, (8S,9S,10R,13 S,14S,17S)-17-((E)-1-((S)-2-Amino-3-methylbutanoyloxyimino)ethyl)-10,13-dimethyl-6,7,8,9,10,11,12,13,14,15,16,17-dodecahydro-1H-cyclopenta[a]phenanthren-3 (2H)-one hydrochloride]	56%	neither of the test compounds were converted to progesterone	neither of the test compounds were converted to progesterone	> 645 µM	146 µM	generated measurable concentrations of the corresponding oximes without evidence of either the parent prodrug or progesterone	24%	5 µM	24%	low levels of the parent compound 7 was observed, high levels of the relative free oxime 3, and therapeutic levels of progesterone	solubility [9]: ≥ 60000 µM; half-life ([10]; buffer): 11.4 h; metabolism in rat S9 liver fractions [11]: relatively stable and no measurable quantities of progesterone were generated; Cmax and AUC, compared with 1 [6]: significantly higher Cmax and AUC than the relative C-3 oxime 1; levels of progesterone produced, compared with compound 1 [8]: superior to those generated by compound 1
C/C(=N\OC(=O)CN(C)C)[C@H]1CC[C@H]2[C@@H]3CCC4=CC(=O)CC[C@]4(C)[C@H]3CC[C@]12C [Compound 10, (8S,9S,10R,13S,14S,17S)-17-((E)-1-(2-(Dimethylamino)acetoxyimino)ethyl)-10,13-dimethyl-6,7,8,9,10,11,12,13,14,15,16,17-dodecahydro-1H-cyclopenta[a]phenanthren-3(2H)-one]				449 µM (≈ 186 µg/mL)	171 µM (≈ 70.9 µg/mL)						Aqueous Stability t1/2 at pH = 7.0 [12]: 6.2 h
CC(=O)[C@H]1CC[C@H]2[C@@H]3CCC4=CC(=O)CC[C@]4(C)[C@H]3CC[C@]12C [PROG, Progesterone, reference compound]	62%			< 25 µM	< 25 µM		4%	20 µM	42%		Aqueous solubility at pH 7 (90 min, pH 7): <25 μM; reduction of mortality [13]: over 60%; half-life ([10]; phosphate buffer): > 240 h; efficacy at the 5 μM dose ([7]; 5 μM, glutamate challenge): nearly ineffective
